Consider one molecule from US11077169B2, “Soy-derived bioactive peptides for use in compositions and methods for wound healing, tissue engineering, and regenerative medicine” (Temple University-Of The Commonwealth System of Higher …, priority 2015, dated 2021).

This assay deals with HaCaT epithelial cells. Kind of assay: wound closure in HaCaT cells with ethanol extracts and estrogen receptor antagonist. The assay is classed as cell-based, human.

Regarding `C[C@]12CC[C@@H]3c4ccc(O)cc4C[C@@H](CCCCCCCCC[S+]([O-])CCCC(F)(F)C(F)(F)F)[C@H]3[C@@H]1CC[C@@H]2O` (some centres unmarked) [Fluvestrant], the “effect on WSsoy-induced wound closure” value was “did not affect”. Moreover, the “inhibition of SPI-induced wound closure” value (10 μM antagonist) was “significantly inhibited”.
